For assay [1], the target named is T1, N48K Clarin-1 (Homo sapiens, UniProt P58418, N48K).
T1 construct: expressed in transfected cells
T1 sequence (P58418 1-232 N48K): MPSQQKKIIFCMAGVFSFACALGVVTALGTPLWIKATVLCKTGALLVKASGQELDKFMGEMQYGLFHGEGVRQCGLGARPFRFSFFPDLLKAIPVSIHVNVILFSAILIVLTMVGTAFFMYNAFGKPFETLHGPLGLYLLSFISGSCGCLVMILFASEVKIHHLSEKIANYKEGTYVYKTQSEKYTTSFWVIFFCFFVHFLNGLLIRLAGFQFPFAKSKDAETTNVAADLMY
The assay can be described thus: Restoration of expression of N48K Clarin-1, 2 hour incubation then 22 hr fresh medium (high content imaging of HA-tagged N48K Clarin-1). The format is cell-based. The note with it: HEK293-Clarin-1 N48K-HA D9 cell line, 2 hr incubation with compound, then 22 hr in fresh medium. How it is done: An Assay Method Showing Activity of Compounds of the Invention that Restore Expression of N48K Clarin-1(2 hour incubation)
(§1) Clarin-1 is the protein encoded by the gene mutated in Usher III Syndrome (Adato et al., 2002). The most prevalent mutation in Clarin-1 in North America is N48K, which is reported to cause loss of glycosylation and a trafficking defect (Tian et al., 2009). […] Thus it is believed that restoring the trafficking of N48K Clarin-1 to the cell surface provides an avenue of intervention for Usher III Sydrome.
(§2) In a typical experiment, these cells were seeded on collagen-coated 96-well plates at a cell density of 20,000 cells per well in Dulbecco's Modified Eagle Medium (DMEM) contain 10% fetal bovine serum in a humidified incubator at 37° C., 5% CO2. After an overnight incubation, compounds were added for a 2 hr incubation in DMEM medium contain 10% fetal bovine serum in a humidified incubator at 37° C., 5% CO2. As a negative control, DMSO was used at 0.25% final concentrations. Compounds were typically tested in triplicate fashion. After the 2 hr incubation with compounds, the cells were incubated in fresh medium for 22 hr. The cells were then fixed by the addition of 10% buffered formalin to the wells to achieve a final concentration of 4% formalin. After a 20 min fixation at room temperature, wells were washed three times with phosphate-buffered saline (PBS) containing Triton X-100 (0.02 phosphate, 150 mM NaCl, 0.1% Triton X-100).
(§3) The HA-tagged N48K Clarin-1 was detected with an antibody against the HA tag (HA.11 Clone 16B12 Monoclonal antibody, Covance #MMS-101P) at a dilution of 1:1000 in PBS containing Triton X-100. After a 90 min incubation, wells were washed three times with PBS containing Triton X-100, and a secondary antibody (Goat anti-mouse IgG-Cy3 (1.5 mg/ml), Jackson IR Europe #115165003) was added to the wells at a dilution of 1:250 in PBS containing Triton X-100 for 45 min. Wells were subsequently washed three times with PBS containing Triton X-100, and a final staining for nuclei was performed by the addition of DAPI (4′,6-diamidino-2-phenylindole) at a dilution of 1:10,000. The imaging of the stained cells was performed on an InCell 1000 High Content Imager (GE Healthcare), reading out the Cy3 channel for N48K Clarin-1 and the DAPI channel for nuclei. The images are analyzed and quantitated using a specific algorithm. This algorithm measured the HA-Clarin-1 staining for each cell based on the additional nuclear segmentation of the DAPI signal (FIG. 1). This algorithm measured the intensity per cell, and thus it is less sensitive for variation in cell number. Per well, approximately 2,000 cells were measured to achieve an average density per cell measurement.

Assay [2] deals with T1, N48K Clarin-1. Nature of the assay: Restoration of expression of N48K Clarin-1, 24 hour incubation (high content imaging of HA-tagged N48K Clarin-1). Type of assay: cell-based. The note with it: HEK293-Clarin-1 N48K-HA D9 cell line, 24 hr incubation with compound; read-out: IC50 (the source's name). The procedure: Assay Method Showing Activity of Compounds of the Invention that Restore Expression of N48K Clarin-1 (24 hour incubation)
as §1
as §2, with “for a 24 hr incubation” for “for a 2 hr incubation”, “After the 24 hr incubation” for “After the 2 hr incubation”, “cells were fixed by” for “cells were incubated in fresh medium for 22 hr. The cells were then fixed by”
as §3, with “images were” for “images are”, “measurement. FIG. 1 illustrates high content analysis. DAPI-stained nuclei are used to perform segmentation of the image into individual cells. The density observed in the N48K Clarin-1 channel (Cy3) is then calculated per cell averaged over a field.” for “measurement.”

With `Cn1cncc1Cn1nc(-c2ccccc2)c2c(Cl)c(-c3ccccc3)nnc21` [IIa, 4-chloro-1-[(3-methylimidazol-4-yl)methyl]-3,5-diphenyl-pyrazolo[3,4-c]pyridazine], the concentration for half-maximal inhibition (IC50) (commonly the concentration needed to halve the response being measured) at N48K Clarin-1 [1] lay in the range of 4 to 8 µM. In addition, the EC50 at N48K Clarin-1 [2] is ≤ 2 µM.

As for `O=C1CCCN1CCn1nc(-c2ccccc2)c2c(Cl)c(-c3ccccc3)nnc21` [IIb, 1-[2-(4-chloro-3,5-diphenyl-pyrazolo[3,4-c]pyridazin-1-yl)ethyl]pyrrolidin-2-one], the IC50 at N48K Clarin-1 [1] is ≤ 4 µM. Further, on N48K Clarin-1 [2], the EC50 is ≤ 2 µM.

Regarding `Clc1c(-c2ccccc2)nnc2c1c(-c1ccccc1)nn2CCn1ccnc1` [IIc, 4-chloro-1-(2-imidazol-1-ylethyl)-3,5-diphenyl-pyrazolo[3,4-c]pyridazine], the IC50 on N48K Clarin-1 [1] is ≤ 4 µM. Further, the EC50 on N48K Clarin-1 [2] was ≤ 2 µM.

Take `CC1(Cn2nc(-c3ccccc3)c3c(Cl)c(-c4ccccc4)nnc32)COC1` [IIf, 4-chloro-1-[(3-methyloxetan-3-yl)methyl]-3,5-diphenyl-pyrazolo[3,4-c]pyridazine]: the 50% inhibitory concentration (IC50) at N48K Clarin-1 [1] was ≤ 4 µM. Besides, the EC50 on N48K Clarin-1 [2] was ≤ 2 µM.

Consider `Cn1cc(Cn2nc(-c3ccccc3)c3c(Cl)c(-c4ccccc4)nnc32)cn1` [IIg, 4-chloro-1-[(1-methylpyrazol-4-yl)methyl]-3,5-diphenyl-pyrazolo[3,4-c]pyridazine], for which the IC50 on N48K Clarin-1 [1] was ≤ 4 µM. Besides, on N48K Clarin-1 [2], the EC50 is ≤ 2 µM.

As for `Clc1c(-c2ccccc2)nnc2c1c(-c1ccccc1)nn2Cc1cocn1` [IIh, 4-[(4-chloro-3,5-diphenyl-pyrazolo[3,4-c]pyridazin-1-yl)methyl]oxazole], the IC50 on N48K Clarin-1 [1] was ≤ 4 µM. At N48K Clarin-1 [2], the EC50 was ≤ 2 µM.

For `Clc1c(-c2ccccc2)nnc2c1c(-c1ccccc1)nn2C[C@H]1CCCO1` [IIj, 4-chloro-3,5-diphenyl-1-[[(2R)-tetrahydrofuran-2-yl]methyl]pyrazolo[3,4-c]pyridazine], the IC50 at N48K Clarin-1 [1] is ≤ 4 µM. For the same compound, the EC50 on N48K Clarin-1 [2] was ≤ 2 µM.

Take `FCCn1nc(-c2ccccc2)c2c(Cl)c(-c3ccccc3)nnc21` [IIl, 4-chloro-1-(2-fluoroethyl)-3,5-diphenyl-pyrazolo[3,4-c]pyridazine]: the IC50 on N48K Clarin-1 [1] was ≤ 4 µM. Moreover, the EC50 on N48K Clarin-1 [2] was ≤ 2 µM.

For `Clc1c(-c2ccccc2)nnc2c1c(-c1ccccc1)nn2Cc1cccnc1` [IIn, 4-chloro-3,5-diphenyl-1-(3-pyridylmethyl)pyrazolo[3,4-c]pyridazine], the IC50 on N48K Clarin-1 [1] was ≤ 4 µM. On N48K Clarin-1 [2], the EC50 is ≤ 2 µM.

With `CS(=O)(=O)CCn1nc(-c2ccccc2)c2c(Cl)c(-c3ccccc3)nnc21` [IIq, 4-chloro-1-(2-methylsulfonylethyl)-3,5-diphenyl-pyrazolo[3,4-c]pyridazine], the IC50 at N48K Clarin-1 [1] was ≤ 4 µM. Besides, the EC50 at N48K Clarin-1 [2] was ≤ 2 µM.

As to `Fc1cccc(-c2nn(CCn3ccnc3)c3nnc(-c4ccccc4)c(Cl)c23)c1` [IIs, 4-chloro-3-(3-fluorophenyl)-1-(2-imidazol-1-ylethyl)-5-phenyl-pyrazolo[3,4-c]pyridazine], the IC50 at N48K Clarin-1 [1] is ≤ 4 µM. The EC50 at N48K Clarin-1 [2] is ≤ 2 µM.

In the case of `CN1CCN(CCn2nc(-c3cnn(C)c3)c3c(Cl)c(-c4ccccc4)nnc32)CC1` [Ic, 4-chloro-3-(1-methyl-1H-pyrazol-4-yl)-1-(2-(4-methylpiperazin-1-yl)ethyl)-5-phenyl-1H-pyrazolo[3,4-c]pyridazine], the IC50 on N48K Clarin-1 [1] fell in the range of 4 to 8 µM. At N48K Clarin-1 [2], the EC50 was ≤ 2 µM.

With `COC/C=C/c1nn(CCN2CCN(C)CC2)c2nnc(-c3ccccc3)c(Cl)c12` [Ii, (E)-4-chloro-3-(3-methoxyprop-1-en-1-yl)-1-(2-(4-methylpiperazin-1-yl)ethyl)-5-phenyl-1H-pyrazolo[3,4-c]pyridazine], the IC50 at N48K Clarin-1 [1] is ≤ 4 µM. Further, at N48K Clarin-1 [2], the EC50 is ≤ 2 µM.

For `CN1CCN(CCn2nc(-c3cccn3C)c3c(Cl)c(-c4ccccc4)nnc32)CC1` [Ik, 4-chloro-3-(1-methyl-1H-pyrrol-2-yl)-1-(2-(4-methylpiperazin-1-yl)ethyl)-5-phenyl-1H-pyrazolo[3,4-c]pyridazine], the IC50 at N48K Clarin-1 [1] is ≤ 4 µM. For the same compound, the EC50 at N48K Clarin-1 [2] is ≤ 2 µM.

`CN1CCN(CCn2nc(-c3ccc4c(c3)CCO4)c3c(Cl)c(-c4ccccc4)nnc32)CC1` [Il, 4-chloro-3-(2,3-dihydrobenzofuran-5-yl)-1-(2-(4-methylpiperazin-1-yl)ethyl)-5-phenyl-1H-pyrazolo[3,4-c]pyridazine]: on N48K Clarin-1 [1], the IC50 was ≤ 4 µM. Further, the EC50 on N48K Clarin-1 [2] was ≤ 2 µM.

For the compound `Cc1nn([C@@H]2C[C@H]3CC[C@@H](C2)N3)c2nnc(-c3ccccc3)c(Cl)c12` [XIIIa], the IC50 at N48K Clarin-1 [1] was in the range of 4 to 8 µM.

Consider `Cn1cncc1Cn1nc(-c2cccn2C)c2c(Cl)c(-c3ccccc3)nnc21` [XIIIb, 4-chloro-1-[(3-methylimidazol-4-yl)methyl]-3-(1-methylpyrrol-2-yl)-5-phenyl-pyrazolo[3,4-c]pyridazine], for which the IC50 at N48K Clarin-1 [1] lay within 4 to 8 µM.

For `Cn1nc(N2CCCC2)c2c(Cl)c(-c3ccccc3)nnc21` [XIIIc, 4-chloro-1-methyl-5-phenyl-3-pyrrolidin-1-yl-pyrazolo[3,4-c]pyridazine], the IC50 at N48K Clarin-1 [1] is 8 to 12 µM.

For `Cc1nn(CCN2CCCC2)c2nnc(-c3ccccc3)c(Cl)c12` [XIIId, 4-chloro-3-methyl-5-phenyl-1-(2-pyrrolidin-1-ylethyl)pyrazolo[3,4-c]pyridazine], the IC50 at N48K Clarin-1 [1] fell in the range of 4 to 8 µM.

On to `Clc1c(-c2ccccc2)nnc2c1c(-c1ccccc1)nn2CCn1cccn1` [XIVa, 4-chloro-3,5-diphenyl-1-(2-pyrazol-1-ylethyl)pyrazolo[3,4-c]pyridazine], for which the IC50 on N48K Clarin-1 [1] was ≤ 4 µM.

These data come from patent US9783545B2, “Pyrazolopyridazines and methods for treating retinal-degenerative diseases and hearing loss associated with usher syndrome” (Usher III Initiative, Inc., priority 2012, dated 2017).
